Laboratory results reported in ChEMBL document CHEMBL5260828, “Amphiphilic glycoconjugates as potential anti-cancer chemotherapeutics” (Eur J Med Chem, 2018).
Converted amounts (≈) assume the structure as drawn. Blank lines part the entries; values can stand above or below the molecule they belong to.

Experiments:
[1] = Induction of apoptosis in rat Glial cell transformed with adenovirus 12 E1A incubated for 24 hrs by /Hoechst […] staining based flourescence microscopy; format: functional
NCI-H292 [2] = assay: Cytotoxicity against human NCI-H292 cells assessed as reduction in cell viability incubated for 4 days by WST-1 assay; format: functional, cell-based; details: NCI-H292, 96 h
[3] = Growth inhibition of human HBC4 cells by sulforhodamine B assay; format: functional
[4] = Growth inhibition of human BSY1 cells by sulforhodamine B assay; format: functional; details: BSY-1
[5] = Growth inhibition of human HBC5 cells by sulforhodamine B assay; format: functional
MCF7 [6] = assay: Growth inhibition of human MCF7 cells by sulforhodamine B assay; format: functional
[7] = Growth inhibition of human […] cells by sulforhodamine B assay; format: functional
U-251 = assay: Growth inhibition of human U-251 cells by sulforhodamine B assay; format: functional
SF-268 = assay: Growth inhibition of human SF-268 cells by sulforhodamine B assay; format: functional
SF-295 = assay: Growth inhibition of human SF-295 cells by sulforhodamine B assay; format: functional
SF-539 = assay: Growth inhibition of human SF-539 cells by sulforhodamine B assay; format: functional
SNB-75 = assay: Growth inhibition of human SNB-75 cells by sulforhodamine B assay; format: functional
SNB-78 = assay: Growth inhibition of human SNB-78 cells by sulforhodamine B assay; format: functional
HCC 2998 = assay: Growth inhibition of human HCC 2998 cells by sulforhodamine B assay; format: functional
KM12 = assay: Growth inhibition of human KM12 cells by sulforhodamine B assay; format: functional
HT-29 = assay: Growth inhibition of human HT-29 cells by sulforhodamine B assay; format: functional
HCT-15 = assay: Growth inhibition of human HCT-15 cells by sulforhodamine B assay; format: functional
HCT-116 = assay: Growth inhibition of human HCT-116 cells by sulforhodamine B assay; format: functional
NCI-H23 = assay: Growth inhibition of human NCI-H23 cells by sulforhodamine B assay; format: functional
NCI-H226 = assay: Growth inhibition of human NCI-H226 cells by sulforhodamine B assay; format: functional
NCI-H522 = assay: Growth inhibition of human NCI-H522 cells by sulforhodamine B assay; format: functional
NCI-H460 = assay: Growth inhibition of human NCI-H460 cells by sulforhodamine B assay; format: functional
A549 = assay: Growth inhibition of human A549 cells by sulforhodamine B assay; format: functional
DMS-273 = assay: Growth inhibition of human DMS-273 cells by sulforhodamine B assay; format: functional
LOX IMVI = assay: Growth inhibition of human LOX IMVI cells by sulforhodamine B assay; format: functional
OVCAR-3 = assay: Growth inhibition of human OVCAR-3 cells by sulforhodamine B assay; format: functional
OVCAR-4 = assay: Growth inhibition of human OVCAR-4 cells by sulforhodamine B assay; format: functional
OVCAR-5 = assay: Growth inhibition of human OVCAR-5 cells by sulforhodamine B assay; format: functional
OVCAR-8 = assay: Growth inhibition of human OVCAR-8 cells by sulforhodamine B assay; format: functional
SK-OV-3 = assay: Growth inhibition of human SK-OV-3 cells by sulforhodamine B assay; format: functional
RXF 631 = assay: Growth inhibition of human RXF 631 cells by sulforhodamine B assay; format: functional
ACHN = assay: Growth inhibition of human ACHN cells by sulforhodamine B assay; format: functional
St-4 = assay: Growth inhibition of human St-4 cells by sulforhodamine B assay; format: functional
MKN-1 = assay: Growth inhibition of human MKN-1 cells by sulforhodamine B assay; format: functional
MKN-7 = assay: Growth inhibition of human MKN-7 cells by sulforhodamine B assay; format: functional
MKN-28 = assay: Growth inhibition of human MKN-28 cells by sulforhodamine B assay; format: functional
MKN-45 = assay: Growth inhibition of human MKN-45 cells by sulforhodamine B assay; format: functional
MKN-74 = assay: Growth inhibition of human MKN-74 cells by sulforhodamine B assay; format: functional
DU-145 = assay: Growth inhibition of human DU-145 cells by sulforhodamine B assay; format: functional
PC-3 = assay: Growth inhibition of human PC-3 cells by sulforhodamine B assay; format: functional
HeLa S3 = assay: Cytotoxicity against human HeLa S3 cells assessed as cell growth inhibition; format: functional, cell-based
[8] = molecular target: Sarcoplasmic/endoplasmic reticulum calcium ATPase 1 (Oryctolagus cuniculus, UniProt P04191); assay: Inhibition of SERCA1a in rabbit Sarcoplasmic reticulum assessed as inhibition constant in presence of [gamma-32P]ATP and calcium ionophore A23187 by coupled enzyme assay; format: subcellular
[9] = Cytotoxicity against mouse WEHI-231 cells assessed as cell growth inhibition incubated for 144 hrs by MTT assay; format: functional, cell-based; details: WEHI231, 144 h
MCF7 [10] = assay: Cytotoxicity against human MCF7 cells assessed as cell growth inhibition incubated for 144 hrs by MTT assay; format: functional, cell-based; details: MCF7, 144 h
Colon 26 = assay: Cytotoxicity against mouse Colon 26 cells incubated for 3 days by MTT assay; format: functional, cell-based; details: Colon 26, 72 h
L1210 = assay: Cytotoxicity against mouse L1210 cells incubated for 3 days by MTT assay; format: functional, cell-based; details: L1210, 72 h
NCI-H292 [11] = assay: Growth inhibition in human NCI-H292 cells incubated for 2 days by calcein-AM/pluronic F127 based fluorescence plate reader; format: functional; details: NCI-H292, 48 h, time 2 day
HeLa = assay: Cytotoxicity against human HeLa cells by MTT assay; format: functional, cell-based
KB = assay: Cytotoxicity against human KB cells by MTT assay; format: functional, cell-based
K562 = assay: Cytotoxicity against human K562 cells by MTT assay; format: functional, cell-based
Jurkat = assay: Cytotoxicity against human Jurkat cells incubated for 18 hrs by MTS assay; format: functional

Sarcoplasmic/endoplasmic reticulum calcium ATPase 1, sequence (P04191 whole entry): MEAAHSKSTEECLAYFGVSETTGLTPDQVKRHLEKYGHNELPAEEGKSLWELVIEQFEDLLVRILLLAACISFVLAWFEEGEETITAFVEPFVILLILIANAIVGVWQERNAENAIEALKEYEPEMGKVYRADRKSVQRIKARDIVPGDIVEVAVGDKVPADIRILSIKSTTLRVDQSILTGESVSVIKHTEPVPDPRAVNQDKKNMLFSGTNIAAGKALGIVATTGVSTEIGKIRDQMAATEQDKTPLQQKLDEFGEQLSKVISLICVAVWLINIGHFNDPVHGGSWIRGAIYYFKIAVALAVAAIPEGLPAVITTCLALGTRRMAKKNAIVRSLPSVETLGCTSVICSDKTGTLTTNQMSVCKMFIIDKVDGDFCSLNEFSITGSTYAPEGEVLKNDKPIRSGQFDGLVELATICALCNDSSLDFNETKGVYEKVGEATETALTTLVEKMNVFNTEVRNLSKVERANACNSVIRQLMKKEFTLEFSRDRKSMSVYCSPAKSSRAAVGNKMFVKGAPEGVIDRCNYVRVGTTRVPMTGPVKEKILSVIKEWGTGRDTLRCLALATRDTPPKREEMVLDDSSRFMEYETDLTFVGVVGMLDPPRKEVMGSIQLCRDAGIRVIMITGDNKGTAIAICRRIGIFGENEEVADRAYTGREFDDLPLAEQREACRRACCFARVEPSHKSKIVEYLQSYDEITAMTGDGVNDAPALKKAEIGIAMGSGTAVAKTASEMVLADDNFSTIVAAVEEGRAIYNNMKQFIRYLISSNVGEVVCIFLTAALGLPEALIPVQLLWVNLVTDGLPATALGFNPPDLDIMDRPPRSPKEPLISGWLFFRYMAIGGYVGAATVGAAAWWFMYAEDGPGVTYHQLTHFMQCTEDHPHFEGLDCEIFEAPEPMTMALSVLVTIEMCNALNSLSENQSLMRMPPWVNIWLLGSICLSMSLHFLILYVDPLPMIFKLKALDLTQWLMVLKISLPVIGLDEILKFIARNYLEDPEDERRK

Structure (SMILES): COC[C@@H](C[C@H]1O[C@@](O)([C@H](O)[C@@H]2C[C@H](OC)[C@@H](O)CC/C=C(C)/C=C/[C@@H](O[C@@H]3O[C@@H](C)[C@H](OC)[C@@H](O)[C@@H]3O)[C@H](C)/C=C(C)/C=C(C)/C=C(\C)C(=O)O2)[C@H](C)[C@@H](O)[C@H]1C)O[C@H]1C[C@](C)(O)[C@@H](O[C@H]2C[C@@H](OC)[C@H](O)[C@@H](C)O2)[C@H](C)O1
- IC50 [1]: 0.011 µg/mL (≈ 0.00974 µM)
- EC50 (NCI-H292 [2]): < 50 nM

Structure (SMILES): C/C=C/C/C(C)=C\[C@H]1C/C=C/C=C/C[C@H](C)/C=C(\C)[C@@H](OC)C/C=C/[C@@H](O[C@@H]2O[C@H](CO)[C@@H](O)[C@H](OC)[C@H]2O)CC(=O)O1
- GI50 [3]: 600 nM
- GI50 [4]: 600 nM
- GI50 [5]: 600 nM
- GI50 (MCF7 [6]): 600 nM
- GI50 [7]: 600 nM
- GI50 (U-251): 600 nM
- GI50 (SF-268): 600 nM
- GI50 (SF-295): 600 nM
- GI50 (SF-539): 600 nM
- GI50 (SNB-75): 600 nM
- GI50 (SNB-78): 600 nM
- GI50 (HCC 2998): 600 nM
- GI50 (KM12): 600 nM
- GI50 (HT-29): 600 nM
- GI50 (HCT-15): 600 nM
- GI50 (HCT-116): 600 nM
- GI50 (NCI-H23): 600 nM
- GI50 (NCI-H226): 600 nM
- GI50 (NCI-H522): 600 nM
- GI50 (NCI-H460): 600 nM
- GI50 (A549): 600 nM
- GI50 (DMS-273): 600 nM
- GI50 (LOX IMVI): 600 nM
- GI50 (OVCAR-3): 600 nM
- GI50 (OVCAR-4): 600 nM
- GI50 (OVCAR-5): 600 nM
- GI50 (OVCAR-8): 600 nM
- GI50 (SK-OV-3): 600 nM
- GI50 (RXF 631): 600 nM
- GI50 (ACHN): 600 nM
- GI50 (St-4): 600 nM
- GI50 (MKN-1): 600 nM
- GI50 (MKN-7): 600 nM
- GI50 (MKN-28): 600 nM
- GI50 (MKN-45): 600 nM
- GI50 (MKN-74): 600 nM
- GI50 (DU-145): 600 nM
- GI50 (PC-3): 600 nM
- IC50 (HeLa S3): 0.1 µg/mL (≈ 0.165 µM)
- Ki [8]: 19 nM

Structure (SMILES): COC[C@@H](C[C@H]1O[C@@](O)([C@H](O)[C@@H]2C[C@H](OC)[C@@H](O)CCC/C=C(C)\C=C\C[C@@H](O[C@H]3O[C@@H](C)[C@H](OC)[C@@H](O)[C@@H]3O)[C@H](C)/C=C(C)/C=C(C)/C=C(\C)C(=O)O2)[C@H](C)[C@@H](O)[C@H]1C)O[C@H]1C[C@](C)(O)[C@@H](O[C@H]2C[C@@H](OC)[C@H](O)[C@@H](C)O2)[C@H](C)O1
- IC50 [9]: 20 nM
- IC50 (MCF7 [10]): 30 nM

Structure (SMILES): C/C=C(\C)[C@H](O)[C@H](C)/C=C(C)/C=C/C/C(C)=C/Cc1nc(OC)c(OC)c(OC2O[C@H](C)[C@H](O)[C@H](O)[C@@H]2O)c1C (stereo partly specified)
- IC50 (Colon 26): 0.81 µg/mL (≈ 1.44 µM)
- IC50 (L1210): 7.91 µg/mL (≈ 14.1 µM)

- GI50 (NCI-H292 [11]): 7 nM
Structure (SMILES): COC[C@@H](C[C@H]1O[C@@](O)([C@H](O)[C@@H]2C[C@H](OC)CCC/C=C(C)/C=C/[C@@H](O[C@@H]3O[C@@H](C)[C@H](OC)[C@@H](O)[C@@H]3O)[C@H](C)/C=C(C)/C=C(C)/C=C(\C)C(=O)O2)[C@H](C)[C@@H](O)[C@H]1C)O[C@H]1C[C@](C)(O)[C@@H](O[C@H]2C[C@@H](OC)[C@H](O)[C@@H](C)O2)[C@H](C)O1

Structure (SMILES): C/C=C(\C)[C@H](O)[C@H](C)/C=C(C)/C=C/C/C(C)=C/Cc1nc(OC)c(OC)c(OC2O[C@@H](C)[C@H](O)[C@@H](O)[C@H]2O)c1C (stereo partly specified)
- IC50 (HeLa): 2.8 µg/mL (≈ 4.98 µM)
- IC50 (KB): 3.8 µg/mL (≈ 6.76 µM)
- IC50 (K562): 4.6 µg/mL (≈ 8.19 µM)

Structure (SMILES): CCCCCCCCCCCCn1cc(CO[C@@H]2OC[C@@H](O)[C@H](O)[C@H]2O)nn1
- CC50 (Jurkat): 26000 nM
